Entries after “also recorded” stand apart in the source; their conditions may differ.

From patent publication US11761894B2, “Silicon-rhodamine fluorescent probe containing hydrophobic group and use thereof” (AJOU UNIVERSITY INDUSTRY—ACADEMIC COOPERATION FOUNDATION, priority 2019, dated 2023) come the findings set out here.

One data set has as its system HeLa, and Hep3B cells. The experiment in a line: High-resolution live cell imaging of SiR-Mito 8 with MitoTracker green. The format is cell-based, human. The note with it: 1 μM, 60 min. How it is done:
(§1) (a) HeLa and Hep3B cells were incubated with MitoTracker Green (0.5 μM), and SiR-Mito 8 (1 μM) for 1 h. After washing 3 times with fresh media, fluorescent live cell images were acquired with LEICA DMi8 microscope. (MitoTracker green: FITC channel, SiR-Mito 8: Cy 5 channel, Scale bar: 15 μm); (b) Chang liver cells expressing mitochondrial YFP were incubated with SiR-Mito 8 (1 μM) for 1 h. After washing 3 times with fresh media, fluorescent live cell images were acquired with LEICA DMi8 microscope. (Mitochondrial-YFP: Rhodamine channel, Scale bar: 15 μm).
Mitochondrial specificity in live cells labeled with SiR-Mito 8 and MitoTracker green was examined by high-resolution imaging.
To this end, HeLa, and Hep3B cells were cultured in Dulbecco's modified eagle media (DMEM, GIBCO) containing 10% fetal bovine serum (FBS, GIBCO) and 1% penicillin (GIBCO) at 37° C. in a humidified incubator with 5% CO2. For the fluorescence microscope imaging, cells were harvested using TrypLE™ Express (GIBCO) and resuspended in fresh culture medium. Harvested cells were seeded on a confocal dish with a density of 4.0×10^4 cells/well. After 24 h incubation, cells were incubated with SiR-Mito 8 (1 μM) and Mitotracker green (0.5 uM) for 60 min. Cells were washed three times with 1×PBS and observed with inverted fluorescence microscope (DMi8, LEICA).

For data set [1], the system named is Mitochondria-YFP Chang liver cells. Kind of data set: Mitochondrial targeting efficiency in Chang liver cells expressing mitochondrial YFP. Type of data set: cell-based, human. The following applies: 1 μM, 60 min. How it is done:
as §1
The mitochondrial targeting efficiency of SiR-Mito 8 in live cells was examined by high-resolution imaging.
To this end, Overexpression plasmid for Mitochondria-YFP was obtained from Catholic University (Seoul, Korea) and transfected into Chang liver cells. Stable clones expressing Mitochondria-YFP was selected using 0.25 mg/ml G418. Next, Mitochondria-YFP infected Chang liver cells were cultured in Dulbecco's modified eagle media (DMEM, GIBCO) containing 10% fetal bovine serum (FBS, GIBCO) and 1% penicillin (GIBCO) at 37° C. in a humidified incubator with 5% CO2. For the fluorescence microscope imaging, cells were harvested using TrypLE™ Express (GIBCO) and resuspended in fresh culture medium. […] Cells were washed three times with 1×PBS and observed with inverted fluorescence microscope (DMi8, LEICA).

Data set [2] deals with HeLa, Hep3B, HepG2 and Raw 264.7 cells. Kind of data set: Cytotoxicity test (mitochondrial respiration viability assay, CellTiter 96 Aqueous One). The format is cell-based, human; mouse. The following applies: up to the 24 hr time point, moderate dose (less than 1 μM). How it is done: HeLa, Hep3B, HepG2 and Raw 264.7 cells were incubated with SiR-Mito 8, concentration range from 0.25 μM to 10 μM, for 1, 4, 12, and 24 h. Viability of the cells was normalized by DMSO control.
In order to use SiR-Mito 8 as a potential NIR fluorescent tracer for mitochondrial staining, cytotoxicity of the probes was evaluated. HeLa, Hep3B, HepG2 and Raw 264.7 cells were incubated with SiR-Mito 8 at various concentrations (from 0.25 to 10.0 μM) and cytotoxicity was measured by a mitochondrial respiration viability assay.
Specifically, HeLa human cervical cancer cells, Hep3B and HepG2 human hepatocellular carcinoma cells, and Raw264.7 mouse macrophage cells were seeded into 96-well cell culture plates per well and allowed to adhere to the plates overnight. The cells were incubated with cell culture media containing each concentration of SiR-Mito 8 (0.25 μM to 10 μM) for 1, 4, 12 or 24 h. After incubation, CellTiter 96® Aqueous One Solution Cell Proliferation Assay (Promega) was added into each well. After 2 h, 490 nm absorption was measured with Cytation 3 microplate reader (BioTek). Cytotoxicity of SiR-Mito 8 was tested in triplicate in a single experiment, with each experiment being repeated at least three times.

Data set [3] has as its system mitochondria in HeLa cells. The experiment in a line: Colocalization test of SiR-Mito probes with MitoTracker green in HeLa cells. The note with it: 1 μM probe, 1 h. The format is cell-based, human. How it is done:
HeLa cells were incubated with cell culture media containing 1 μM SiR-Mito probe, and 0.5 μM MitoTracker green. After 1 h, HeLa cells were washed three times with 1×PBS for and observed with a LEICA DMi8 fluorescent microscope. Each experiment was observed using 512-542 nm emitter for FITC channel (for MitoTracker Green), and 663-738 nm exciter, 545-625 nm emitter for Cy5 channel (for SiR-Mito probes). Scale bar: 50 μm.
HeLa human cervical cancer cells were cultured in Dulbecco's modified eagle media (DMEM, GIBCO) containing 10% fetal bovine serum (FBS, GIBCO) and 1% penicillin (GIBCO) at 37° C. in a humidified incubator with 5% CO2. For the fluorescence microscope imaging, cells were harvested using TrypLE™ Express (GIBCO) and resuspended in fresh culture medium. Harvested cells with a density of 4.0×10^3 cells/well were seeded on a HeLa 96 black well plate (CORNING) and incubated for 24 h. Cells were incubated with SiR-Mito probes (1 μM) and MitoTracker Green (0.5 μM) for 60 min. After the incubation, cells were washed with 1×PBS for three times and observed with inverted fluorescence microscope (DMi8, LEICA). Each experiment was observed using a 325-375 nm exciter, 435-485 nm emitter for DAPI channel, 460-500 nm exciter, 512-542 nm emitter for FITC channel, 541-551 nm exciter, 565-605 nm emitter for Rhodamine channel, and 663-738 nm exciter, 545-625 nm emitter for Cy5 channel.
To determine the effect of probe hydrophobicity on the efficiency of targeting to mitochondria, the Pearson coefficient for colocalization of SiR-Mito probes and MitoTracker green, a commercial fluorescent mitochondrial bioprobe, was measured (FIG. 1). For the colocalization test, human cervical cancer HeLa cells were seeded on 96-well plates and incubated for 1 h with 1 μM of each different SiR-Mito probe and 0.5 μM MitoTracker green, washed briefly with 1×PBS, and imaged with a LEICA DMi8 fluorescent microscope using the 40× objective.

Another data set has as its system Hep3B cells. The experiment in a line: Co-staining with Hoechst and Lysotracker Red in Hep3B cells. The following applies: 1 μM, 1 h. Type of data set: cell-based, human. How it is done:
Liver cancer Hep3B cells were incubated with Hoechst (0.01 μg/ml), Lysotracker red (1 μM), and SiR-Mito 8 (1 μM) for 1 h. After washing 3 times with fresh media, fluorescence live cell images were acquired with a LEICA DMi8 microscope (Left). […] Scale bar: 50 μm.
To verify the mitochondrial specificity of the SiR-Mito 8 probe, Hep3B human cancer cells were co-stained with a nuclear and a lysosomal tracer, in addition to SiR-Mito 8.
To this end, 6.0×10^4 human HCC cell line Hep3B cells were seeded on confocal dish and incubated for 2 days. After 2 days, Hep3B cells were incubated with Hoechst, 1 μM Lysotracker Red, and 1 μM SiR-Mito 8 contained media for 1 h. After the incubation, Hep3B cells were washed with cell culture media for three times and observed with inverted fluorescence microscope (DMi8, LEICA).

Take “N-(10-(5-((cyclooctylmethyl) carbamoyl)-2-methylphenyl)-7-(dimethylamino)-5,5-dimethyldibenzo[b,e]silin-3(5H)-ylidene)-N-methylmethanaminium [SiR-Mito 8]”: the “Mitochondrial specificity in live cells (co-expression with MitoTracker green)” value in the data set on HeLa, and Hep3B cells is on record as “highly co-expressed”. For the same substance, the Mitochondrial targeting efficiency result in data set [1] is “high mitochondrial targeting efficiency”. The Cytotoxicity result in data set [2] is “no acute cytotoxicity”. In data set [3] (0.5 μM MitoTracker green), the “Mitochondria Targeting (Pearson coefficient for colocalization with MitoTracker green)” value is “*** (*** 0.9 ≤ R)” and the “Pearson coefficient for colocalization with MitoTracker green” value is given as “highest”. For the same substance, in data set [3], the “Intracellular fluorescence (SiR channel)” value is on record as “strongest”. Further, the “Mitochondrial specificity versus lysosome (Lysotracker Red co-staining)” value in the data set on Hep3B cells is on record as “high mitochondrial specificity; also recorded: did not localize to other organelle such as lysosome”.
